“Also recorded” adds a separate entry of the source.
Legend:
[1] = tested on: M24-MET human melanoma cells; test: CB.17 SCID mouse xenograft model of human malignant melanoma; format: in vivo; conditions: 5 mg/kg i.p. twice daily, 5 days on 2 days off
Method: Cell Lines. Human melanoma cell line M24-MET (ATCC CRL-12270) was obtained from American Type Culture Collection (Rockville, Md.) and maintained as a continuous cell line in DMEM supplemented with 10% fetal calf serum (FCS), 4 mm glutamine, 100 units/ml penicillin G, and […] streptomycin sulfate. All of the tissue culture reagents were obtained from Life Technologies, Inc. Inc. (Gaithersburg, Md.).
Mice. Female CB.17 SCID mice were obtained from Taconic (Germantown, N.Y.) and housed in a specific-pathogen-free room located in a secure indoor facility with controlled temperature, humidity, and noise levels. Mice were housed in micro-isolator cages and fed with autoclaved rodent chow. Water was also autoclaved and supplemented with trimethoprim/sulfamethoxazol 3 days a week. […]
SCID Mouse Model of Human Malignant Melanoma. […] The size of subcutaneous tumors were measured on day 14 and day 16 to evaluate the ability of AP-1 to inhibit tumor growth in this SCID mouse xenograft model of melanoma. Tumor volumes were calculated using the formula for the volume of a prolate spheroid, V=4/3×3.14×length/2×width/2×depth/2.

BT-20 = test: Confocal laser scanning microscopy apoptosis, BT-20; format: cell-based, human; conditions: 100 nM, 48 hours
Method: (§1) Confocal Laser Scanning Microscopy. Cells were treated with cinchona alkaloids or PBS in culture medium for 48 hours. After 48 hr of culture, cells were co-stained with a rabbit polyclonal antitubulin antibody (Green Fluorescence) and the DNA-specific dye Toto-3 (Blue Fluorescence) and examined by laser scanning confocal microscopy using a Bio-Rad MRC-1024 Laser Scanning Confocal Microscope equipped with a Kr/Ar laser (Bio-Rad, Hercules, Calif., USA) mounted on a Nikon Eclipse E800 upright microscope with high numerical aperture objectives (Nikon, Melville, N.Y., USA), as described (F. M. Uckun, et al., 2010, Proc. Natl. Acad. Sci. USA, 107: 2902-7; F. M. Uckun., et al., 2010, British Journal of Haematology, 149: 508-17; F. M. Uckun, et al., 2013, Blood. 121:4348-54; F. M. Uckun et al., 2010, Proc. Natl Acad. Sci. USA 107:16852-57; F. M. Uckun et al., 2012, Proc. Natl Acad. Sci. USA 109:18072-77). Cell lines. BT-20 (ATCC HTB-19), a triple negative breast cancer cell line, PC-3 (ATCC CRL-1435) a CRPC cell line (small cell endocrine carcinoma) derived from a Stage IV prostate cancer patient with bone metastases were obtained from American Type Culture Collection (ATCC) (Manassas, Va.). […] Cells were washed in PBS and counterstained with the DNA-specific dye TOTO-3 (blue fluorescence) (Molecular Probes Inc., Eugene, Oreg.) for 10 min at a dilution of 1:1000. […]

PC-3 = test: Confocal laser scanning microscopy apoptosis, PC-3; format: cell-based, human; conditions: 100 nM, 48 hours
Method: as §1

| Molecule | tumor progression [1] | average tumor volume ([1]; day 16, from day 7) | signs of apoptosis by confocal imaging (BT-20) | signs of apoptosis by confocal imaging (PC-3) |
| --- | --- | --- | --- | --- |
| C=CC1CN2CCC1CC2C(Oc1cc(OC(c2ccnc3ccccc23)C2CC3CCN2CC3C=C)nc(OC(c2ccnc3ccccc23)C2CC3CCN2CC3C=C)n1)c1ccnc2ccccc12 (stereo not shown) [AP-1, 2,4,6-Tri(9-O-cinchoninyl)pyrimidine] | significantly slowed down the tumor progression | 484.3±76.5 mm3 |  |  |
| 2,4,6-Tri (9-O-dihydrocinchoninyl)pyrimidine [AP-5] |  |  | virtually all of the BT-20 or PC-3 cells treated with AP-5 showed signs of advanced apoptosis; also recorded: virtually all of the BT-20 cells treated with AP-5 showed signs of advanced apoptosis | virtually all of the BT-20 or PC-3 cells treated with AP-5 showed signs of advanced apoptosis; also recorded: virtually all of the PC-3 cells treated with AP-5 showed signs of advanced apoptosis |
